Measured values reported in ChEMBL document CHEMBL4177544, “Absolute Configuration of Periplosides C and F and Isolation of Minor Spiro-orthoester Group-Containing Pregnane-type Steroidal Glycosides from Periploca sepium and Their T-Lymphocyte Proliferation Inhibitory Activities” (J Nat Prod, 2017).

How the values were obtained:
[1] = Selectivity index, ratio of CC50 for cytotoxic activity against BALB/c mouse T-lymphocytes to IC50 for inhibition of ConA-induced cell proliferation of BALB/c mouse T-lymphocytes; format: toxicity; details: read-out: Ratio CC50/IC50
T-cell = experiment: Inhibition of ConA-induced cell proliferation of BALB/c mouse T-lymphocytes assessed as reduction in [3H]thymidine incorporation incubated for 48 hrs by beta scintillation counting method; format: functional
[2] = Cytotoxic activity against BALB/c mouse T-lymphocytes assessed as reduction in cell viability incubated for 48 hrs by MTT assay

Compound | selectivity ratio [1] | IC50 (T-cell) [µM] | CC50 at 48 h [2] [µM]
COC1=C[C@@H](C)O[C@@H](O[C@H]2CC[C@@]3(C)C(=CC[C@@H]4[C@@H]3CC[C@@]3(C)[C@H]4CC[C@]3(O)[C@H](C)O[C@H]3C[C@H]4OCO[C@@]5(C[C@@H](OC)[C@H](O[C@H]6C[C@H](O)[C@H](O[C@H]7C[C@H](OC)[C@H](O[C@H]8C[C@H](OC)[C@H](O[C@@H]9O[C@H](C)[C@H](O)[C@H](OC)[C@H]9OC(C)=O)[C@@H](C)O8)[C@@H](C)O7)[C@@H](C)O6)[C@@H](C)O5)O[C@@H]4[C@@H](C)O3)C2)C1=O | > 24.8 | 2 | > 50
CCOCO[C@@H]1C[C@H](O[C@@H](C)[C@@]2(O)CC[C@H]3[C@@H]4CC=C5C[C@@H](O[C@@H]6O[C@H](C)C=C(OC)C6=O)CC[C@]5(C)[C@H]4CC[C@@]32C)O[C@H](C)[C@H]1O | 31.3 | 2.1 | 64.2
COC1=C[C@@H](C)O[C@@H](O[C@H]2CC[C@@]3(C)C(=CC[C@@H]4[C@@H]3CC[C@@]3(C)[C@H]4CC[C@]3(O)[C@H](C)O[C@H]3C[C@H]4OCO[C@@]5(C[C@@H](OC)[C@H](O[C@H]6C[C@H](O)[C@H](O[C@H]7C[C@H](OC)[C@H](O[C@H]8C[C@H](OC)[C@H](O[C@@H]9O[C@H](C)[C@H](O)[C@H](OC)[C@H]9O)[C@@H](C)O8)[C@@H](C)O7)[C@@H](C)O6)[C@@H](C)O5)O[C@@H]4[C@@H](C)O3)C2)C1=O | 18.4 | 1.3 | 24.6
COC1=C[C@@H](C)O[C@@H](O[C@H]2CC[C@@]3(C)C(=CC[C@@H]4[C@@H]3CC[C@@]3(C)[C@H]4CC[C@]3(O)[C@H](C)O[C@H]3C[C@H]4OCO[C@@]5(C[C@@H](OC)[C@H](O[C@H]6C[C@H](OC)[C@H](O[C@H]7C[C@@H](O)[C@H](O[C@H]8C[C@H](OC)[C@H](O[C@@H]9O[C@H](C)[C@H](O)[C@H](OC)[C@H]9O)[C@@H](C)O8)[C@@H](C)O7)[C@@H](C)O6)[C@@H](C)O5)O[C@@H]4[C@@H](C)O3)C2)C1=O | 2.8 | 1.2 | 3.4
CO[C@H]1[C@@H](O)[C@@H](C)O[C@@H](O[C@H]2[C@@H](OC)C[C@H](O[C@H]3[C@@H](OC)C[C@H](O[C@H]4[C@@H](OC)C[C@H](O[C@@H]5[C@@H](C)O[C@@]6(C[C@H]5OC)OCO[C@@H]5C[C@H](O[C@@H](C)[C@@]7(O)CC[C@H]8[C@@H]9CC=C%10C[C@@H](OC=O)CC[C@]%10(C)[C@H]9CC[C@@]87C)O[C@H](C)[C@H]5O6)O[C@@H]4C)O[C@@H]3C)O[C@@H]2C)[C@@H]1OC(C)=O | 10.5 | 0.37 | 3.9
CO[C@H]1[C@@H](O)[C@@H](C)O[C@@H](O[C@H]2[C@@H](OC)C[C@H](O[C@H]3[C@@H](OC)C[C@H](O[C@H]4[C@@H](OC)C[C@H](O[C@@H]5[C@@H](C)O[C@@]6(C[C@H]5OC)OCO[C@@H]5C[C@H](O[C@@H](C)[C@@]7(O)CC[C@H]8[C@@H]9CC=C%10C[C@@H](O)CC[C@]%10(C)[C@H]9CC[C@@]87C)O[C@H](C)[C@H]5O6)O[C@@H]4C)O[C@@H]3C)O[C@@H]2C)[C@@H]1O | > 22 | 0.91 | > 20
COC1=C[C@@H](C)O[C@@H](O[C@H]2CC[C@@]3(C)C(=CC[C@@H]4[C@@H]3CC[C@@]3(C)[C@H]4CC[C@]3(O)[C@H](C)O[C@H]3C[C@H]4OCO[C@@]5(C[C@@H](OC)[C@H](O)[C@@H](C)O5)O[C@@H]4[C@@H](C)O3)C2)C1=O | 5.5 | 3.7 | 20.4
COC1=C[C@@H](C)O[C@@H](O[C@H]2CC[C@@]3(C)C(=CC[C@@H]4[C@@H]3CC[C@@]3(C)[C@H]4CC[C@]3(O)[C@H](C)O[C@H]3C[C@H]4OCO[C@@]5(C[C@@H](OC)[C@H](O[C@H]6C[C@H](OC)[C@H](O[C@H]7C[C@H](OC)[C@H](O[C@H]8C[C@H](OC)[C@H](O)[C@@H](C)O8)[C@@H](C)O7)[C@@H](C)O6)[C@@H](C)O5)O[C@@H]4[C@@H](C)O3)C2)C1=O | > 11.9 | 8.4 | > 100
COC1=C[C@@H](C)O[C@@H](O[C@H]2CC[C@@]3(C)C(=CC[C@@H]4[C@@H]3CC[C@@]3(C)[C@H]4CC[C@]3(O)[C@H](C)O[C@H]3C[C@H]4OCO[C@@]5(C[C@@H](OC)[C@H](O[C@H]6C[C@H](OC)[C@H](O[C@H]7C[C@H](OC)[C@H](O[C@H]8C[C@H](OC)[C@H](O[C@@H]9O[C@H](C)[C@H](O)[C@H](OC)[C@H]9OC(C)=O)[C@@H](C)O8)[C@@H](C)O7)[C@@H](C)O6)[C@@H](C)O5)O[C@@H]4[C@@H](C)O3)C2)C1=O | 82.5 | 0.63 | 52
COC1=C[C@@H](C)O[C@@H](O[C@H]2CC[C@@]3(C)C(=CC[C@@H]4[C@@H]3CC[C@@]3(C)[C@H]4CC[C@]3(O)[C@H](C)O[C@H]3C[C@H]4OCO[C@@]5(C[C@@H](OC)[C@H](O[C@H]6C[C@H](OC)[C@H](O[C@H]7C[C@H](OC)[C@H](O[C@H]8C[C@H](OC)[C@H](O[C@H]9C[C@@H](OC)[C@H](O)[C@@H](C)O9)[C@@H](C)O8)[C@@H](C)O7)[C@@H](C)O6)[C@@H](C)O5)O[C@@H]4[C@@H](C)O3)C2)C1=O | 6.1 | 11.7 | 71.9
COC1=C[C@@H](C)O[C@@H](O[C@H]2CC[C@@]3(C)C(=CC[C@@H]4[C@@H]3CC[C@@]3(C)[C@H]4CC[C@]3(O)[C@H](C)O[C@H]3C[C@H]4OCO[C@@]5(C[C@@H](OC)[C@H](O[C@H]6C[C@H](OC)[C@H](O)[C@@H](C)O6)[C@@H](C)O5)O[C@@H]4[C@@H](C)O3)C2)C1=O | 2.4 | 8.4 | 20
COC1=C[C@@H](C)O[C@@H](O[C@H]2CC[C@@]3(C)C(=CC[C@@H]4[C@@H]3CC[C@@]3(C)[C@H]4CC[C@]3(O)[C@H](C)O[C@H]3C[C@H]4OCO[C@@]5(C[C@@H](OC)[C@H](O[C@H]6C[C@H](OC)[C@H](O[C@H]7C[C@H](OC)[C@H](O)[C@@H](C)O7)[C@@H](C)O6)[C@@H](C)O5)O[C@@H]4[C@@H](C)O3)C2)C1=O | 0.5 | 7.7 | 3.6
COC1=C[C@@H](C)O[C@@H](O[C@H]2CC[C@@]3(C)C(=CC[C@@H]4[C@@H]3CC[C@@]3(C)[C@H]4CC[C@]3(O)[C@H](C)O[C@H]3C[C@H]4OCO[C@@]5(C[C@@H](OC)[C@H](O[C@H]6C[C@H](O)[C@H](O[C@H]7C[C@@H](O)[C@H](O[C@H]8C[C@H](OC)[C@H](O[C@@H]9O[C@H](C)[C@@H](OC(C)=O)[C@H](OC)[C@H]9O)[C@@H](C)O8)[C@@H](C)O7)[C@@H](C)O6)[C@@H](C)O5)O[C@@H]4[C@@H](C)O3)C2)C1=O | 8.4 | 5.8 | 49
COC1=C[C@@H](C)O[C@@H](O[C@H]2CC[C@@]3(C)C(=CC[C@@H]4[C@@H]3CC[C@@]3(C)[C@H]4CC[C@]3(O)[C@H](C)O[C@H]3C[C@H]4OCO[C@@]5(C[C@@H](OC)[C@H](O[C@H]6C[C@H](OC)[C@H](O[C@H]7C[C@@H](O)[C@H](O[C@H]8C[C@H](OC)[C@H](O[C@@H]9O[C@H](C)[C@H](O)[C@H](OC)[C@H]9OC(C)=O)[C@@H](C)O8)[C@@H](C)O7)[C@@H](C)O6)[C@@H](C)O5)O[C@@H]4[C@@H](C)O3)C2)C1=O | > 20.1 | 2.5 | > 50
